In publication PMC7206119, “RIP1 inhibition blocks inflammatory diseases but not tumor growth or metastases” (Cell Death and Differentiation, 2019):

Columns and labels:
Test in all cases: biochemical
Parameters in all cases: Thermo Fisher SelectScreen kinase panel: Z'-LYTE and Adapta activity, LanthaScreen binding
Abl = biological target: T1, Abl (Homo sapiens, UniProt P00519)
T1 construct: gene ABL1
Outline: (§1)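 Single-concentration panel: 10 µM GNE684 in KINOMEscan scanMAX binding (468 kinases) and in a 221-kinase panel run as Z'-LYTE/Adapta activity or LanthaScreen binding assays.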

Aurora_A = biological target: T2, Aurora_A (Homo sapiens, UniProt O14965)
T2 construct: gene AURKA
Outline: as §1

BRSK1 = BRSK1 (Homo sapiens, UniProt Q8TDC3)
Outline: as §1

CDK7/cyclinH = CDK7/cyclinH (Homo sapiens, UniProt P50613)
Chain of CDK7/cyclinH (P50613 whole entry): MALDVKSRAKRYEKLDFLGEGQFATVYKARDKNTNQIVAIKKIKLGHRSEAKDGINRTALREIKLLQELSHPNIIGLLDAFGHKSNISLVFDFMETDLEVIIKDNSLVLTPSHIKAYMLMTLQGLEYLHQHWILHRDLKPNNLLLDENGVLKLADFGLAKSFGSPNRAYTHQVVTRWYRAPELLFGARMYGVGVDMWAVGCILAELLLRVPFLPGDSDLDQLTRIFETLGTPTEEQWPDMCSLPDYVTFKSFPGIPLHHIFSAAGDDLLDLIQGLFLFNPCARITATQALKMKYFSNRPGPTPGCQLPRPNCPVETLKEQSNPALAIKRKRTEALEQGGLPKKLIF
Outline: as §1

EPHB1 = EPHB1 (Homo sapiens, UniProt P54762)
Outline: as §1

FGFR3 = FGFR3 (Homo sapiens, UniProt P22607)
Chain of FGFR3 (P22607 whole entry): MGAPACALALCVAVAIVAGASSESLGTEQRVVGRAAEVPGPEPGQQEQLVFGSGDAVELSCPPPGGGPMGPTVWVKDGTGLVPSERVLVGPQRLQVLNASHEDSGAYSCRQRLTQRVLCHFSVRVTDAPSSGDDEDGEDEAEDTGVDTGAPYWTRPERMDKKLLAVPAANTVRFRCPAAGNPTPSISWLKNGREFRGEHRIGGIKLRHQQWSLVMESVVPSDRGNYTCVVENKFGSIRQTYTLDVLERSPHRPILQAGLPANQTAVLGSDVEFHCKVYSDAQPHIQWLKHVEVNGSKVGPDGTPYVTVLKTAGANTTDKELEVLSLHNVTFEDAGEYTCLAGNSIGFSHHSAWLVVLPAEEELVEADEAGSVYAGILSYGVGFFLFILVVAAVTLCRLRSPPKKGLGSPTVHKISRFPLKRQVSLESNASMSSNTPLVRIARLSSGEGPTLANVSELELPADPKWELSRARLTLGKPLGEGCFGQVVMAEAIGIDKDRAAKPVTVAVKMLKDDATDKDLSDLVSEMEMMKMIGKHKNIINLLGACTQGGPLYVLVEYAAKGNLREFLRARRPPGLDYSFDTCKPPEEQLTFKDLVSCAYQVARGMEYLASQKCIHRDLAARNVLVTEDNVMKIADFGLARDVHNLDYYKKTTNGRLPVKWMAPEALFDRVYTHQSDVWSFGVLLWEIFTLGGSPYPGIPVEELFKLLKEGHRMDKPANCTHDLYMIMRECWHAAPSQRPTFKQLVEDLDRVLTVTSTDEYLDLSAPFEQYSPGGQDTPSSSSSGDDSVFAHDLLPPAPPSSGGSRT
Outline: as §1

IRAK1 = IRAK1 (Homo sapiens, UniProt P51617)
Outline: as §1

LCK = LCK (Homo sapiens, UniProt P06239)
Outline: as §1

LIMK1 = LIMK1 (Homo sapiens, UniProt P53667)
Chain of LIMK1 (P53667 whole entry): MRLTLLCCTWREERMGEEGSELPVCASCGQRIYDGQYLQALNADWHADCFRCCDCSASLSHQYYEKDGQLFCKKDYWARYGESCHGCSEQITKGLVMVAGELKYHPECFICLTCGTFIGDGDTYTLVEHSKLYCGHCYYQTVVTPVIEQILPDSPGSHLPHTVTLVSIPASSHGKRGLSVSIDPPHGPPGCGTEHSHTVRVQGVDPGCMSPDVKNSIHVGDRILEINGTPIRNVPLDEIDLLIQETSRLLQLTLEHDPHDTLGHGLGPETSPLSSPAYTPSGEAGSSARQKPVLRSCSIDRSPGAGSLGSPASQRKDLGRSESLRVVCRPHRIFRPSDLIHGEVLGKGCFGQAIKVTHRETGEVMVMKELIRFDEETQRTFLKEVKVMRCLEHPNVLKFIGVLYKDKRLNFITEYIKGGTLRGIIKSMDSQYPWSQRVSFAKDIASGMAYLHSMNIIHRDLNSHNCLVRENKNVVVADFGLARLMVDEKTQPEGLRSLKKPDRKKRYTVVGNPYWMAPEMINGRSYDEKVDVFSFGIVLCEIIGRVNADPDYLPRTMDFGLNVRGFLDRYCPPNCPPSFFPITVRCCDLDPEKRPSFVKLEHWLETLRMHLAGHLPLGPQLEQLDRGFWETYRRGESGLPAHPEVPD
Outline: as §1

MELK = MELK (Homo sapiens, UniProt Q14680)
Chain of MELK (Q14680 whole entry): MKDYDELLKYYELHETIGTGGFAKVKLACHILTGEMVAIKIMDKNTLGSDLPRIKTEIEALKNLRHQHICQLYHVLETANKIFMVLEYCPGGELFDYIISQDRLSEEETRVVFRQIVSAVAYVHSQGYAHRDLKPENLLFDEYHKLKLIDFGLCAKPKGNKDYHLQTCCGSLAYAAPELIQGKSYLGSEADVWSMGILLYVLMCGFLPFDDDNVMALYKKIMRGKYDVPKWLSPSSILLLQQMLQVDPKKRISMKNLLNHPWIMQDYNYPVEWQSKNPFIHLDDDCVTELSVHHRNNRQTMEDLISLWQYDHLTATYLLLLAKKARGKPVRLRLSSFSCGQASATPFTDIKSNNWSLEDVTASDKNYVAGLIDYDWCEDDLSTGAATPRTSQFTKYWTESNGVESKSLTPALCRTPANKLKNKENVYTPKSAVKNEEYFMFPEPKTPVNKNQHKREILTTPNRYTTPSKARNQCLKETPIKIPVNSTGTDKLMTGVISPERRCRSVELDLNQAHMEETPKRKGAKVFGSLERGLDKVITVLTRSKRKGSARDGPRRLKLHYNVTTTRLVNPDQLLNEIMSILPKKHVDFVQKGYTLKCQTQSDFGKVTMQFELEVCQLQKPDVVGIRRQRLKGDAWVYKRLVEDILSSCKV
Outline: as §1

MSK1 = biological target: T3, MSK1 (Homo sapiens, UniProt O75582)
T3 construct: gene RPS6KA5
Outline: as §1

MST3 = biological target: T4, MST3 (Homo sapiens, UniProt Q9Y6E0)
T4 construct: gene STK24
Outline: as §1

MYLK(smMLCK) = biological target: T5, MYLK(smMLCK) (Homo sapiens, UniProt Q15746)
T5 construct: smooth muscle MLCK
Outline: as §1

PKC_zeta = biological target: T6, PKC_zeta (Homo sapiens, UniProt Q05513)
T6 construct: gene PRKCZ
Outline: as §1

PKD1 = biological target: T7, PKD1 (Homo sapiens, UniProt Q15139)
T7 construct: gene PRKD1
T7 sequence (Q15139 whole entry): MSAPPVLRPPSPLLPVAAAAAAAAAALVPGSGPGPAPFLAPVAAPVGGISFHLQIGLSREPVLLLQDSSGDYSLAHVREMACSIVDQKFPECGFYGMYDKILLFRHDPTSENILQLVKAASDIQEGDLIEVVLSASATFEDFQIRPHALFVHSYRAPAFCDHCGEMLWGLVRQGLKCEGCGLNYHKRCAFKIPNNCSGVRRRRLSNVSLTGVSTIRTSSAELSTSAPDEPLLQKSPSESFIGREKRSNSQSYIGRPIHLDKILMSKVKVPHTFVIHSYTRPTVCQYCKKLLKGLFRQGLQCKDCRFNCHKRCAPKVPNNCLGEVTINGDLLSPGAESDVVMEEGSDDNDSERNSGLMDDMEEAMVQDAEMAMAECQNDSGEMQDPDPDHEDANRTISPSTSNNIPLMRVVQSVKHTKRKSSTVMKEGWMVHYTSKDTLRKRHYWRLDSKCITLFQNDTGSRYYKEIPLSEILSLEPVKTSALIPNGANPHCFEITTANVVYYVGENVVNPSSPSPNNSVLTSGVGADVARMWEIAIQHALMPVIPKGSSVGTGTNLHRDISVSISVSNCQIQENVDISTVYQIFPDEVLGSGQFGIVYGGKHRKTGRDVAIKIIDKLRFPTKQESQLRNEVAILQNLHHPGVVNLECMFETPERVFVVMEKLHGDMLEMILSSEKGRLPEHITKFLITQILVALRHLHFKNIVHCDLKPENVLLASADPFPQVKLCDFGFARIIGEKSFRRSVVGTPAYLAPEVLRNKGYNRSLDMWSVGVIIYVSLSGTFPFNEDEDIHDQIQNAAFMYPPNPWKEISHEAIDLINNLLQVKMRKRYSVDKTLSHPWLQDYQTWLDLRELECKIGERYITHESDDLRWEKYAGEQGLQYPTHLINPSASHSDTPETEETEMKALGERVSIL
Outline: as §1

PRAK = biological target: T8, PRAK (Homo sapiens, UniProt Q8IW41)
T8 construct: gene MAPKAPK5
Outline: as §1

ROCK1 = ROCK1 (Homo sapiens, UniProt Q13464)
Outline: as §1

SGK3 = SGK3 (Homo sapiens, UniProt Q96BR1)
Outline: as §1

SRPK1 = SRPK1 (Homo sapiens, UniProt Q96SB4)
Outline: as §1

TIE2 = biological target: T9, TIE2 (Homo sapiens, UniProt Q02763)
T9 construct: gene TEK
Outline: as §1

TNK2 = TNK2 (Homo sapiens, UniProt Q07912)
Chain of TNK2 (Q07912 whole entry): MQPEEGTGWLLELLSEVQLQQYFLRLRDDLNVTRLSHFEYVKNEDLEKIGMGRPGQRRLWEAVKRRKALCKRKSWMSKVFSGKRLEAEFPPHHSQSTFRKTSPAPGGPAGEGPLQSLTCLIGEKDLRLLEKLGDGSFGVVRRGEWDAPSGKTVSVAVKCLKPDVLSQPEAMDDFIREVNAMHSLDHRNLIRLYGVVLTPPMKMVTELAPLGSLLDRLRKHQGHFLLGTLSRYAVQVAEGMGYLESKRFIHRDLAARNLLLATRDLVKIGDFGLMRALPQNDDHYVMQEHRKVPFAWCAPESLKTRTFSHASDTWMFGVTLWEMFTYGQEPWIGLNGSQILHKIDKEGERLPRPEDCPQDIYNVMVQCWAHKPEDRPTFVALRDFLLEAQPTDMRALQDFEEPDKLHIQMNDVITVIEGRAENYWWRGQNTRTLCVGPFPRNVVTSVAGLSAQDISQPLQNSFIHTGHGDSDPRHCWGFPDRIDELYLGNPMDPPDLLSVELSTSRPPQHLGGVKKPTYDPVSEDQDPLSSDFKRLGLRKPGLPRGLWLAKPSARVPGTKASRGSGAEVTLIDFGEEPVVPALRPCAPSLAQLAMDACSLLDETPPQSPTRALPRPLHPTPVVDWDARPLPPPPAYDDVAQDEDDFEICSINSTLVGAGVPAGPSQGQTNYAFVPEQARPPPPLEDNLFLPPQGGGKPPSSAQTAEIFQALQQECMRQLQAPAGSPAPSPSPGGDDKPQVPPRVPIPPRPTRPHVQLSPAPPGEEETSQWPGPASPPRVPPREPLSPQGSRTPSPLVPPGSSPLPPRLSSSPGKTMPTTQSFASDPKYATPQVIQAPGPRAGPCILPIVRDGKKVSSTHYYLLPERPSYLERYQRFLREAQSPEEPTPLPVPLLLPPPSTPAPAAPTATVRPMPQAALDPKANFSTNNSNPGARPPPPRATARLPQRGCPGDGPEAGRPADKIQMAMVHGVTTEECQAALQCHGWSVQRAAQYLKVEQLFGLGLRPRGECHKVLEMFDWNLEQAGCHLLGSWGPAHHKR
Outline: as §1

TSSK1 = biological target: T10, TSSK1 (Homo sapiens, UniProt Q9BXA7)
T10 construct: gene TSSK1B
Outline: as §1

TXK = TXK (Homo sapiens, UniProt P42681)
Chain of TXK (P42681 whole entry): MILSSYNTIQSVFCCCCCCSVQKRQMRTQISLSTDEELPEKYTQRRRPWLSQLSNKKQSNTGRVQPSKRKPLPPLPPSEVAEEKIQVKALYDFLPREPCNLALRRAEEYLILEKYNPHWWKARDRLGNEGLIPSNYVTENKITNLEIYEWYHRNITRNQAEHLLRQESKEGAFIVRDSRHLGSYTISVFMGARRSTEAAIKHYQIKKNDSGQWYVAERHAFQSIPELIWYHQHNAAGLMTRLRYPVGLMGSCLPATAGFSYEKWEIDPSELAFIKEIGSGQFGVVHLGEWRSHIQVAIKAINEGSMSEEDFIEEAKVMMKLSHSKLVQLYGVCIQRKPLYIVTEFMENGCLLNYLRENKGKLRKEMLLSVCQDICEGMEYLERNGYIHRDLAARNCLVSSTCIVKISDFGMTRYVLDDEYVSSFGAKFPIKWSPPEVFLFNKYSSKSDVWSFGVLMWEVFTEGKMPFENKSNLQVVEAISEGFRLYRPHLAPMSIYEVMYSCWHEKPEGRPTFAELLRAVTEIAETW
Outline: as §1

Compound: COc1cc2c(cn1)N(C)C(=O)[C@@H](NC(=O)c1nc3n(n1)[C@H](c1ccccc1)CC3)CC2 [GNE684, (S)-N-((S)-7-methoxy-1-methyl-2-oxo-2,3,4,5-tetrahydro-1H-pyrido[3,4-b]azepin-3-yl)-5-phenyl-6,7-dihydro-5H-pyrrolo[1,2-b][1,2,4]triazole-2-carboxamide]
- inhibition at 10 µM (Abl): 2%
- inhibition at 10 µM (Aurora_A): 3%
- inhibition at 10 µM (BRSK1): 2.5%
- inhibition at 10 µM (CDK7/cyclinH): 5%
- inhibition at 10 µM (EPHB1): 3%
- inhibition at 10 µM (FGFR3): -1.5%
- inhibition at 10 µM (IRAK1): -10.5%
- inhibition at 10 µM (LCK): 5%
- inhibition at 10 µM (LIMK1): 8.5%
- inhibition at 10 µM (MELK): 13%
- inhibition at 10 µM (MSK1): -4%
- inhibition at 10 µM (MST3): 4%
- inhibition at 10 µM (MYLK(smMLCK)): -5%
- inhibition at 10 µM (PKC_zeta): -2.5%
- inhibition at 10 µM (PKD1): 3%
- inhibition at 10 µM (PRAK): 2.5%
- inhibition at 10 µM (ROCK1): 1%
- inhibition at 10 µM (SGK3): 1.5%
- inhibition at 10 µM (SRPK1): -0.5%
- inhibition at 10 µM (TIE2): -4.5%
- inhibition at 10 µM (TNK2): 2.5%
- inhibition at 10 µM (TSSK1): 6%
- inhibition at 10 µM (TXK): 5.5%
